Measurements reported in US12617870B2, “Methods of reversing ticagrelor activity” (SFJ Pharmaceuticals X, LTD., priority 2018, dated 2026).
Where “and” joins values, the source holds several entries; their conditions need not be identical. Equal entries are not always repeated.

Assays:
[1] = tested on: PB2452 binding to biotinylated ticagrelor; assay: Selectivity: competition binding with PB2452 to biotinylated ticagrelor; design: species or system human
Procedure: The chemical starting point for the development of ticagrelor was adenosine triphosphate (ATP), and ticagrelor retains an adenosine-like core. To confirm the specificity of PB2452 for ticagrelor and ticagrelor active metabolite (TAM), its binding to ATP, ADP, and adenosine was evaluated. […] The selectivity of PB2452 was determined by competition binding with PB2452 to biotinylated ticagrelor.

[2] = PLATO, cited from earlier work; for patients with fatal or life-threatening major bleeding events: patients with ACS, both treatment groups
[3] = tested on: platelet aggregation (ticagrelor antiplatelet activity); assay type: in vivo, human; conditions: placebo subjects
Procedure: Platelet function was assessed using light transmission aggregometry (LTA), VerifyNow, and vasodilator stimulated phosphoprotein (VASP) assays before and after 48 hours of ticagrelor administration […] Cohorts 7 to 10 received an 18-gram fixed dose of PB2452 via various infusion regimens or placebo. Infusions of PB2452 in these cohorts were initiated 2 hours after the last ticagrelor pretreatment dose to coincide with the peak concentration of ticagrelor. (Gurbel (2009). Subjects in all cohorts were randomized in a 3:1 ratio to receive PB2452 or placebo. The primary efficacy outcome was the effectiveness of PB2452 in reversing the antiplatelet effect of ticagrelor by analyzing platelet aggregation using light transmission aggregometry at multiple time points before and after PB2452 or placebo administration in ticagrelor pretreated subjects. Secondary efficacy outcomes were the effectiveness of ticagrelor reversal assessed using VerifyNow and the vasodilator stimulated phosphoprotein phosphorylation immunoassay (VASP). The sample size of 64 was based on clinical and practical considerations and not on a formal statistical power calculation. The sample size was considered sufficient to adequately assess the safety, efficacy, and pharmacokinetic profiles of PB2452 and the pharmacokinetic and pharmacodynamic profiles of ticagrelor. Reversal of antiplatelet effect was evaluated by comparing the mean percent of baseline platelet aggregation between PB2452 and placebo using Wilcoxon rank-sum test. Multiplicity was adjusted using the Bonferroni method. Correlations between each pair of the platelet function tests were evaluated using Pearson's correlation and Spearman's rank correlation coefficient. Mean data from subjects receiving placebo were pooled across cohorts for all presentations. Categorical variables are summarized by their frequencies and percentages, and continuous variables are presented with the number of subjects with non-missing data, mean, standard deviation, median, minimum, and maximum. Descriptive statistics are presented for each cohort, and pooled placebo and PB2452 data. For pharmacodynamic data, platelet aggregation results were compared between each cohort and pooled placebo data (cohorts 4 to 6 and cohort 7 to 10 were pooled separately). All analyses were performed with SAS software, version 9.4 (SAS Institute).

[4] = Phase 1 healthy volunteer study: pharmacokinetics of total ticagrelor; assay type: in vivo, human
Procedure: Plasma samples for determining total concentration of ticagrelor and its active metabolite, TAM (or ARC-124910XX) will be collected from subjects in Cohorts 4 through 10 before dosing (within 10 minutes prior to the initiation of the study drug infusion [Hour 0], and up to 48 hours following the initiation of study drug infusion. Specific collection times for each cohort are listed in the table below: […]

| inhibition of PB2452 binding to biotinylated ticagrelor [1] | SMILES | other results |
| --- | --- | --- |
| No inhibition | Nc1ncnc2c1ncn2[C@@H]1O[C@H](COP(=O)(O)OP(=O)(O)O)[C@@H](O)[C@H]1O [ADP, adenosine diphosphate] |  |
| No inhibition | Nc1ncnc2c1ncn2[C@@H]1O[C@H](CO)[C@@H](O)[C@H]1O [adenosine] |  |
| No inhibition | CCCC(=O)Nc1ncnc2c1ncn2[C@@H]1O[C@@H]2COP(=O)(O)O[C@H]2[C@H]1OC(=O)CCC [bucladesine] |  |
| No inhibition | CSCCNc1nc(SCCC(F)(F)F)nc2c1ncn2[C@@H]1O[C@H](COP(=O)(O)OP(=O)(O)C(Cl)(Cl)P(=O)(O)O)[C@@H](O)[C@H]1O [cangrelor] |  |
| No inhibition | O=C1CCc2cc(OCCCCc3nnnn3C3CCCCC3)ccc2N1 [cilostazol] |  |
|  | COC(=O)[C@H](c1ccccc1Cl)N1CCc2sccc2C1 [clopidogrel] | patients with fatal or life-threatening major bleeding events [2]: 5.8% |
| No inhibition | NS(=O)(=O)c1cc2c(cc1Cl)NC(C1CC3C=CC1C3)NS2(=O)=O (centres unmarked) [cyclothiazide] |  |
| No inhibition | CC(=O)NC[C@H]1CN(c2ccc(N3CCOCC3)c(F)c2)C(=O)O1 [linezolid] |  |
| No inhibition | CC[C@H](C)C(=O)O[C@H]1C[C@@H](C)C=C2C=C[C@H](C)[C@H](CC[C@@H]3C[C@@H](O)CC(=O)O3)[C@H]21 [lovastatin] |  |
| No inhibition | COC(=O)C1=C(C#N)NC(C)=C(C(=O)OC(C)C)C1c1cccc([N+](=O)[O-])c1 (centres unmarked) [nilvadipine] |  |
| No inhibition | CNC(=O)c1cnn(-c2nc(N)c3ncn([C@@H]4O[C@H](CO)[C@@H](O)[C@H]4O)c3n2)c1 [regadenoson] |  |
|  | CCCSc1nc(N[C@@H]2C[C@H]2c2ccc(F)c(F)c2)c2nnn([C@@H]3C[C@H](OCCO)[C@@H](O)[C@H]3O)c2n1 [ticagrelor, (1S,2S,3R,5S)-3-[7-{[(1R,2S)-2-(3,4-difluorophenyl)cyclopropyl]amino}-5-(propylthio)-3H-[1,2,3]triazolo[4,5-d]pyrimidin-3-yl]-5-(2-hydroxyethoxy)cyclopentane-1,2-diol] | suppression of platelet aggregation ([3]; after 48 hours of ticagrelor (180 mg loading + 90 mg twice daily)): ~80% and 80-85%; platelet aggregation remained suppressed after ticagrelor was stopped [3]: 24 h; increase of mean ticagrelor concentrations compared with ticagrelor alone ([4]; PB2452 18 gram dose level with 8- to 16-hour infusions): 5.6 fold; increase of mean concentration of circulating ticagrelor ([4]; in the presence of PB2452 (Cohorts 4-6, FIG. 11B)): 2-5.6 fold; time of peak total ticagrelor concentration after an oral dose ([4]; subjects receiving ticagrelor alone): approximately 2 hours; peak total ticagrelor concentration ([4]; subjects receiving ticagrelor alone, oral dose): 900 ng/mL; patients with fatal or life-threatening major bleeding events [2]: 5.8%; patients with fatal or life-threatening bleeding event ([2]; urgent surgery, could not wait three days for ticagrelor to wash out): approximately 50%; patients with major bleeding related to procedures like CABG [2]: approximately 9%; patients with spontaneous major bleeding events not related to any medical procedure [2]: approximately 3% |

| SMILES | inhibition of PB2452 binding to biotinylated ticagrelor [1] | other results |
| --- | --- | --- |
| Nc1ncnc2c1ncn2[C@@H]1O[C@H](COP(=O)(O)OP(=O)(O)OP(=O)(O)O)[C@@H](O)[C@H]1O [ATP, adenosine triphosphate] | No inhibition |  |
| CC1(C)C(C=C(Cl)Cl)C1C(=O)OC(C#N)c1ccc(F)c(Oc2ccccc2)c1 (centres unmarked) [cyfluthrin] | No inhibition |  |
